Measurements taken from patent publication EP0785936B1, “PHOTOCHROMIC NAPHTHOXAZINE COMPOUNDS” (PPG Industries Ohio, Inc., priority 1994, dated 1996).

Assay: Photochromic response of imbibed diethylene glycol bis(allyl carbonate) polymer test squares on an optical bench
Type: physicochemical
Conditions: for Δ OD @ SATURATION: UV exposure continued for 20 minutes; for BLEACH RATE T 1/2: time for absorbance of activated form to reach one half the highest absorbance at 25.7 ± 0.5 °C after removal of activating light
Description: Comparative testing was conducted on the principle product of Example 3 and certain photochromic compounds described in U.S. Patents 4,342,668 and 4,637,698. These compounds were imbibed by thermal transfer into test squares of a polymeric matrix prepared from a diethylene glycol bis(allyl carbonate) composition by the following procedure: Each photochromic compound was dissolved in toluene to form a 4 weight percent solution of the compound. A piece of No. 4 Whatman filter paper was saturated with the toluene solution of the photochromic compound and allowed to air dry. The dried filter paper was placed on one side of the polymer test square, which measured 1/8 inch (0.3 centimeter) x 2 inch (5.1 centimeters) x 2 inch (5.1 centimeters). A piece of untreated filter paper was placed on the other side of the polymer test square and the resulting sandwich placed between two plates of flat aluminum metal plates. The entire assembly was then placed in a 155°C. oven for a time sufficient to thermally transfer the photochromic compound into the polymer test square. […] The imbibed test squares were washed with acetone after removal from the oven.
The imbibed polymer test squares were tested for photochromic response rates on an optical bench. The samples were illuminated by a 150 watt Xenon lamp fitted with a copper sulfate bath and a neutral density filter at an intensity of about one sun. A second beam of light provided by a filtered tungsten lamp arranged to pass through the sample area exposed by the UV source was used to monitor changes in transmission of the sample over different wavelength ranges in the visible region of the spectrum. The intensity of the monitoring beam after passing through the sample was measured by means of an IL-1500 radiometer equipped with a silicon detector head and matching filters.
The Δ OD/min., which represents the sensitivity of the photochromic compound's response to UV light, was measured using photopic filters on the silicon detector. The response of the filtered detector approximated the luminosity curve. The Δ OD was measured over the first five (5) seconds of UV exposure, then expressed on a per minute basis. The saturation optical density (OD) was taken under identical conditions as the Δ OD/min., except UV exposure was continued for 20 minutes. The lambda max reported in Table 2 is the wavelength in the ultraviolet range closest to the visible spectrum or in the threshold range, i.e., 390 to 410 nanometers, of the visible spectrum at which the maximum absorption and activation of the photochromic compound occurs in the polymer matrix test squares.
The bleach rate T 1/2(sec.) is the time interval in seconds for the absorbance of the activated form of the photochromic compounds in the test polymer to reach one half the highest absorbance at 25.7 ± 0.5 °C. after removal of the source of activating light.

Row | Compound | Δ OD @ SATURATION | BLEACH RATE T 1/2
1 | 1-propyl-3,3,4,5(or 3,3,5,6)-tetramethyl-9'-methoxycarbonyl-8'-acetoxy-spiro[indoline-2,3'-[3H]naphth[2,1-b]-[1,4]oxazine] | 0.42 | 2.27 min
2 | 1-propyl-3,3,4,5(or 3,3,5,6)-tetramethyl-spiro[indoline-2,3'-[3H]naphth[2,1-b][1,4]oxazine] | 0.11 | 0.783 min
3 | CCCN1c2cc(C)c(C)cc2C(C)(C)C12C=Nc1c(ccc3ccc(OC)cc13)O2 (centres unmarked) [A, 1-propyl-3,3,5,6-tetramethyl-9'-methoxy-spiro[indoline-2,3'-[3H]naphth[2,1-b][1,4]oxazine]] | 0.11 | 1.17 min
4 | CCCN1c2cc(C)c(C)cc2C(C)(C)C12C=Nc1c(ccc3ncccc13)O2 (centres unmarked) [B, 1-propyl-3,3,5,6-tetramethyl-spiro[indoline-2,3'-[3H]pyrido-[3,2-f][1,4]benzoxazine]] | 0.36 | 1.15 min
